SMILES strings stand for the structures.

The results in this text go back to patent US20100105636A1, “T-TYPE CALCIUM CHANNEL BLOCKER” (Nissan Chemical Industries, Ltd., priority 2003, published 2010).

Type in all cases: cell-based
One assay has as its system L-type Ca channel. Put plainly: Effect on L-type Ca channel expressed in BHK cells (whole cell patch clamp), Pharmacological Test Example 2. As to conditions: 10 μM; BHK cells expressing L-type Ca channel; depolarization pulse 10 mV from −80 mV; 5 minutes after application; average value vs vehicle control (100%). The protocol: (§1) Effect on L-Type and T-Type Ca Channel Expressed in Mammalian Cells (BHK Cells)
(§2) An electrophysiological evaluation was carried out by use of BHK (baby hamster kidney) cells in which L-type Ca channel or T-type Ca channel (α1G) was expressed according to the method of Wakamori M et al. (Wakamori M et al.: J Biol Chem 273, 34857-34867, 1998) based on the whole cell patch clamp method. Each Ca-ion current was measured through a patch clamp amplifier as an inward current when depolarization pulse (10 mV in L-type Ca channel, −20 mV in T-type Ca channel) was applied to cells maintained at a membrane potential of −80 mV. Compound (9) was dissolved in extracellular solution and applied with perfusion. At 5 minutes after the application, any variation in Ca-ion current was measured. The results are shown in Table 2 as Ca current inhibition (%, average value) of the compound of the present invention to Ca current (100%) in vehicle control.
A general note: The patch-clamp technique gives a direct electrical read-out from membranes.

For assay [1], the target named is T1, T-type Ca channel (α1G) (Homo sapiens, UniProt O43497).
T1 construct: expressed in transfected cells; host or cells: BHK (baby hamster kidney) cells
Kind of assay: Effect on T-type Ca channel expressed in BHK cells (whole cell patch clamp), Pharmacological Test Example 2. To be noted: BHK cells expressing T-type Ca channel (α1G), depolarization pulse −20 mV from −80 mV, 5 minutes after application, average value vs vehicle control (100%), read-out: Inhibition (%) of Ca current, T-type. The procedure: as §1, §2

The target of assay [2] is T1, T-type Ca channel (α1G). Kind of assay: Effect on T-type Ca channel expressed in BHK cells (whole cell patch clamp), Pharmacological Test Example 1. As to conditions: BHK cells expressing T-type Ca channel (α1G), depolarization pulse −20 mV from −80 mV, 5 minutes after application, average value vs vehicle control (100%), read-out: Inhibition (%) of Ca current. The protocol:
Effect on T-Type Ca Channel Expressed in Mammalian Cells (BHK Cells)
as §2, with “which” for “which L-type Ca channel or”, “pulse (−20 mV)” for “pulse (10 mV in L-type Ca channel, −20 mV in T-type Ca channel)”, “mV. Each compound” for “mV. Compound (9)”, “Table 1” for “Table 2”

T1 sequence (O43497 whole entry): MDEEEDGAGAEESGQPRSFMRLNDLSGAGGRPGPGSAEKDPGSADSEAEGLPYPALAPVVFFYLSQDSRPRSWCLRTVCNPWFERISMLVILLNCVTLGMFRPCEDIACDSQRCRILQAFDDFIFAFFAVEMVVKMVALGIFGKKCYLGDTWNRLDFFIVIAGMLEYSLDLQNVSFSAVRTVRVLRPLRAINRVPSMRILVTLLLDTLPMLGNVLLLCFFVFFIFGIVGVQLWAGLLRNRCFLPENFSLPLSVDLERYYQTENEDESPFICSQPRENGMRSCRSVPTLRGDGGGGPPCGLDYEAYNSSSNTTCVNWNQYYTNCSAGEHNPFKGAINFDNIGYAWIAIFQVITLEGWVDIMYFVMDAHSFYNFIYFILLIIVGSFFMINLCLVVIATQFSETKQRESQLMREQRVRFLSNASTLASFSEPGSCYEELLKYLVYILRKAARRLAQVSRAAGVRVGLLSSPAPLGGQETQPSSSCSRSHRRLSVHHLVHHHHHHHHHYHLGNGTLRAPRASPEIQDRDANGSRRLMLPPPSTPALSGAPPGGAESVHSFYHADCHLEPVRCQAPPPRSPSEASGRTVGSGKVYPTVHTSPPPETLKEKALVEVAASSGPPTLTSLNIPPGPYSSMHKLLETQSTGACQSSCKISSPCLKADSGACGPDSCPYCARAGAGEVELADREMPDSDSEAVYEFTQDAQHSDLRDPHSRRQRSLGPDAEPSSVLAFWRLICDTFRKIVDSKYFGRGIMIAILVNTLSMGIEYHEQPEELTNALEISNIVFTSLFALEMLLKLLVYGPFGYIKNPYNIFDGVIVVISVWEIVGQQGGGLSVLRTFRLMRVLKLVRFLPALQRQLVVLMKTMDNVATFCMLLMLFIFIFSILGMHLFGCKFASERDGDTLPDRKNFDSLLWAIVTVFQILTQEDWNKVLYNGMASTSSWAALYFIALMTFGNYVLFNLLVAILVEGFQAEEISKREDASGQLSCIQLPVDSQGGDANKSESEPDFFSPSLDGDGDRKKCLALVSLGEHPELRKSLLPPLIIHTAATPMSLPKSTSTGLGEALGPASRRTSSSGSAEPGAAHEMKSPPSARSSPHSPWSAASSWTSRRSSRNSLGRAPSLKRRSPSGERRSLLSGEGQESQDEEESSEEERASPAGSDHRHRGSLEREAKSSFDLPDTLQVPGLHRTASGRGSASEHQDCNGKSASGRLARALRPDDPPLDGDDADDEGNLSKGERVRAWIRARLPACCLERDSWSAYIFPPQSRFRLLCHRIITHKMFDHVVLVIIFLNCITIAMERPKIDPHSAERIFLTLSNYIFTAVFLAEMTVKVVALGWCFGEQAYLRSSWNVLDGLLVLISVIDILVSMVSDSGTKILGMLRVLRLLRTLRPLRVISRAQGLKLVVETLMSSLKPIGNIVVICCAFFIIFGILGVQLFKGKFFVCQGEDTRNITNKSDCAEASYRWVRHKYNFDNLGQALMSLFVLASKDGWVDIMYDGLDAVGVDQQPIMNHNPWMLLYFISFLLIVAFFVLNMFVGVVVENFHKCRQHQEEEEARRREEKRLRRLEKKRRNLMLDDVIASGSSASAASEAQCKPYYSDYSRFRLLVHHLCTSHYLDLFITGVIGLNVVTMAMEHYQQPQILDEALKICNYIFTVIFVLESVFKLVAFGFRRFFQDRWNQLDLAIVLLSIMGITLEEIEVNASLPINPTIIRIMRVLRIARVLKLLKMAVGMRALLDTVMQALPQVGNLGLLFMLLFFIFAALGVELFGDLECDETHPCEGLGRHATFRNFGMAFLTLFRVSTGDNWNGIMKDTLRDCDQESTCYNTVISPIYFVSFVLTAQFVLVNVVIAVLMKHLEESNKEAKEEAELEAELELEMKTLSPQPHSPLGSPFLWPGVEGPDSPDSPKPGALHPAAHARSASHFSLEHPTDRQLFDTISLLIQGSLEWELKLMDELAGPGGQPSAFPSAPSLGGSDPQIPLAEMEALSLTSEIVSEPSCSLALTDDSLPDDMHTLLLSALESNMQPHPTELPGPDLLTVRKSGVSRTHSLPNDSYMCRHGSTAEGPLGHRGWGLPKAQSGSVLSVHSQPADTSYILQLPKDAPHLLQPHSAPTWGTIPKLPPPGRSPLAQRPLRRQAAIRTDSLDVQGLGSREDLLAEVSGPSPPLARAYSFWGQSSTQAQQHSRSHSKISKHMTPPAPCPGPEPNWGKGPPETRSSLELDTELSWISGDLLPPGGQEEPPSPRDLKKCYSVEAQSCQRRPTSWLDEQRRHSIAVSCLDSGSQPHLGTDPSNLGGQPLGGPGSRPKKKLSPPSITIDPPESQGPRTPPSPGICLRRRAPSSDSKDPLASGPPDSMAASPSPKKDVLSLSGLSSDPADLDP

As usually defined, the inhibition is the share of the control response that was lost under treatment. For the compound `CC1=C(C(=O)OCCN(Cc2ccccc2)c2ccccc2)C(c2cccc([N+](=O)[O-])c2)C(P2(=O)OCC(C)(C)CO2)=C(C)N1CCN1CCOCC1` (stereo not shown) [Compound (9)], the “Inhibition (%) of Ca current, L-type” value in the assay with L-type Ca channel turned out to be 9.9%. Moreover, the inhibition at 10 µM at T-type Ca channel (α1G) [1] came out at 48.9%.

Regarding `Cc1nc(C)c(P2(=O)OCC(C)(C)CO2)c(-c2cccc([N+](=O)[O-])c2)c1C(=O)OCCN1CCN(C(c2ccccc2)c2ccccc2)CC1` [Compound (6)], the inhibition at 10 µM on T-type Ca channel (α1G) [2] stood at 43.6%.

For `COC(=O)c1c(C)nc(C)c(C(=O)OC2CCCN(Cc3ccccc3)C2)c1-c1cccc([N+](=O)[O-])c1` (stereo not shown) [Compound (7)], the inhibition at 10 µM on T-type Ca channel (α1G) [2] is 45.8%.

Take `Cc1nc(C)c(P2(=O)OCC(C)(C)CO2)c(-c2cccc([N+](=O)[O-])c2)c1C(=O)OCCNc1ccccc1` [Compound (5)]: the inhibition at 10 µM on T-type Ca channel (α1G) [2] amounted to 53.9%.

With `COC(=O)C1=C(C)N(C)C(C)=C(C(=O)OC2CCCN(Cc3ccccc3)C2)C1c1cccc([N+](=O)[O-])c1` (stereo not shown) [Compound (8)], the inhibition at 10 µM on T-type Ca channel (α1G) [2] came out at 30%.

Take `Cc1nc(C)c(P2(=O)OCC(C)(C)CO2)c(-c2cccc([N+](=O)[O-])c2)c1C(=O)OCCN(Cc1ccccc1)c1ccccc1` [Compound (4)]: the inhibition at 10 µM on T-type Ca channel (α1G) [2] was determined as 23.9%.
